Experimental data from PubChem BioAssay (NCI).
Values joined by “and” are separate entries in the source; they are usually repeats but may differ in a detail not shown here. Identical values can stand only once.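 Interpolation was linear, between the two tested concentrations surrounding the appropriate level; five concentrations were tested over 48 hours in 96-well plates. Abbreviation: GI50, concentration required for 50% inhibition of growth. TGI denotes the concentration required for complete inhibition of growth.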

Legend:
Test in all cases: inhibition of tumour cell growth, NCI panel, 48 h
[1] = test system: HCC-2998 colon
[2] = test system: HCT-15 colon
[3] = test system: HL-60(TB) leukemia
[4] = test system: MOLT-4 leukemia
[5] = test system: OVCAR-4 ovarian
[6] = test system: OVCAR-5 ovarian
[7] = test system: SF-295 CNS
[8] = test system: SNB-19 CNS
[9] = test system: T-47D breast
[10] = test system: UO-31 renal

Structure (SMILES) | GI50 [1] [µM] | TGI [1] [µM] | GI50 [2] [µM] | TGI [2] | GI50 [3] [µM] | TGI [3] | GI50 [4] [µM] | TGI [4] [µM] | GI50 [5] [µM] | TGI [5] | GI50 [6] [µM] | TGI [6] [µM] | GI50 [7] [µM] | TGI [7] [µM] | GI50 [8] [µM] | TGI [8] [µM] | GI50 [9] [µM] | TGI [9] [µM] | GI50 [10] [µM] | TGI [10] [µM]
CCOc1ccc(N2C(N)=NC(N)=NC2(C)C)cc1 | > 100 | > 100 | > 100 | > 100 µM | 72 | > 100 µM | 65.6 | > 100 | > 100 | > 100 µM | 39.7 | > 100 | 48.1 | > 100 | 55.8 | > 100 | > 100 | > 100 | > 100 | > 100
C[C@H]1CC(=O)[C@@]2(O)C#C/C=C\C#C[C@@H]3Nc4c(cc(O)c5c4C(=O)c4ccccc4C5=O)[C@]24O[C@]314 |  | 0.0595 | 0.00722 | 0.836 µM and 0.148 µM | 0.0025 | 0.00552 µM and 0.0052 µM | 0.0025 | 0.00278 | 0.351 | 0.648 µM and 1.92 µM |  | 0.679 | 0.0025 | 0.0542 |  | 0.172 |  | 0.612 |  | 
O=C(/C=C/c1cccs1)Nc1ncc(Cc2ccccc2F)s1 | 0.463 | > 100 | 0.123 | > 100 µM | 0.213 | 0.589 µM | 0.378 | > 100 | 0.791 | > 100 µM | 0.506 | > 100 | 0.244 | > 100 | 0.361 | > 100 | 0.404 | > 100 | 0.437 | > 100
CCOC(=O)c1cc2cc([N+](=O)[O-])ccc2oc1=O |  | > 100 |  | > 100 µM |  | > 100 µM |  | > 100 |  | > 100 µM |  | > 100 |  | > 100 |  | > 100 |  | > 100 |  | > 100
C=C1C(=O)O[C@H]2[C@H](OC(C)=O)[C@@H](C)CCC/C(C)=C/CC[C@]3(CO3)[C@H](O)C[C@@H]12 | 15.2 | 28.4 | 1.84 | 3.76 µM | 2.31 | 5.63 µM | 2.28 | 5.82 | 6.89 | 21.9 µM | 13.2 | 26.5 | 19.7 | 49.3 | 15.2 | 28.5 | 2.8 | 9.88 | 6.29 | 19.9
CCn1c(-c2cc3ccccc3cc2OC(=O)c2ccccc2)n[nH]c1=S |  |  | > 50 | > 50 µM | 32.7 | > 50 µM | 28 | > 50 | > 50 | > 50 µM | > 50 | > 50 | 27 | > 50 | > 50 | > 50 | 38.3 | > 50 | 21.1 | > 50
CCn1cc(C2NC(=O)c3cc(F)ccc3N2)c2cccc(Cl)c21 (stereo not drawn) | 0.348 | > 25.5 | 0.0968 | > 100 µM | 0.121 | 0.731 µM | 0.293 | > 47.8 | 2.53 | > 100 µM | 0.503 | > 100 | 0.1 | > 58.3 | 0.382 | > 100 | 0.635 | > 100 | 2.88 | > 100
N#CC(C#N)=C/C=C/c1cccc([N+](=O)[O-])c1 | 1.68 | 3.05 | 1.39 | 3.98 µM | 0.345 | 5.38 µM | 0.391 | 13.6 | 3.09 | 13.9 µM | 2.24 | 7.96 | 2.28 | 10.3 | 3.35 | 16 | 1.4 | 6.81 |  | 
COc1ccccc1OCC(O)CO (stereo not drawn) | > 100 | > 100 | > 100 | > 100 µM | > 100 | > 100 µM | > 100 | > 100 | > 100 | > 100 µM | > 100 | > 100 | > 100 | > 100 | > 100 | > 100 | > 100 | > 100 | > 100 | > 100
CN1C=CN(Cc2ccc(-c3ccccn3)nc2)[CH-]1.CN1C=CN(Cc2ccc(-c3ccccn3)nc2)[CH-]1.[Au+3] | 5.47 | > 42.7 | 1.6 | > 54.6 µM | 1.22 | 6.84 µM | 1.1 | 12.4 | 0.769 | 14.1 µM | 5.84 | 27.3 | 4.87 | > 100 | 7.83 | 40 | 1.17 | 3.07 | 22 | > 73.6
C1CCN2CC34CC(CC5CCCN(C6CCCC3N6)C54)C2C1 (stereo not drawn) |  | > 100 |  | > 100 µM |  | > 100 µM |  | > 100 |  | > 100 µM |  | > 100 |  | > 100 |  | > 100 |  | > 100 |  | 
CCc1ccc(/C=C2/SC(=S)NC2=O)cc1 | 18.8 | 45.7 | 16.9 | 39.8 µM | 21.6 | 57 µM | 23.5 | 84.3 | 20 | > 93.3 µM | 24.1 | 90.6 | 18.2 | 56.8 | 20.3 | > 90.3 | 23.5 | 89.2 | 13.2 | 33.1
COCCOCCOCCOCCOc1ccc2c(c1)C(=O)c1nc3ncccc3c(=O)n1-2 | 1.32 | 2.79 | 1.21 | 2.6 µM | 1.8 | 5.05 µM | 3.61 | > 100 | 1.74 | 4.23 µM | 1.78 | 3.16 | 0.351 | 1.4 | 1.28 | 2.64 | 3.03 | 9.04 | 1.53 | 6.21
COc1ccc2c3c([nH]c2c1)[C@H]1C[C@H]2[C@H](C[C@@H](O)[C@H](OC)[C@H]2C(=O)O)CN1CC3 |  | > 100 |  | > 100 µM |  |  |  | > 100 |  | > 100 µM |  | > 100 |  | > 100 |  | > 100 |  | > 100 |  | > 100
